Assays:
[1] = test system: cotton plants expressing FMP 27 and FMP 37; experiment: Tolerance to HPPD inhibitors of cotton plants expressing tolerant HPPD enzymes; format: in vivo; details: T1 cotton plants; one week after application
From the text: Genes coding for the selected HPPD were obtained from a member of the group of organisms consisting of Blepharisma japonicum and Kordia algicida and cloned into an appropriate binary vector allowing the integration of DNA into the cotton genome, under the control of the CaMV35S promoter. For the respective cloning procedures, see WO2011076882 (PCT/EP2010/070567), Example 11; for Blepharisma japonicum (FMP37) and WO2011076889 (PCT/EP2010/070575), Example 11 for Kordia algicida (FMP27).
Between the sequence corresponding to the promoter and the sequence coding for the HPPD a DNA sequence coding for a transit peptide to the chloroplast was inserted, in order to add at the N-terminal extremity of the protein a target signal to allow the localization of the HPPD protein into the plant chloroplast. Cotton transformation was achieved as described in Example 12 of WO2011076882 (PCT/EP2010/070567) for Blepharisma japonicum (FMP37) and WO2011076889 (PCT/EP2010/070575) for Kordia algicida (FMP27). Seeds from T0 events showing tolerance to tembotrione were harvested.
T1 Cotton seeds were transferred to single pots and grown under standard cultivation conditions, see WO2011076882 (PCT/EP2010/070567) for Blepharisma japonicum (FMP37) and WO2011076889 (PCT/EP2010/070575) for Kordia algicida (FMP27).
At least 4 weeks later, plants will be sprayed with several N-(tetrazol-4-yl)- or N-(triazol-3-yl)arylcarboxamides as defined above.

[2] = test system: FMP37 (HPPD derived from Blepharisma japonicum); experiment: Determination of HPPD activity in presence of HPPD inhibitor (percentage of inhibition); format: biochemical
Experimental: (§1) The HPPD activity was checked by the standard spectrophotmetric assay (method extensively described in WO 2009/144079)
(§2) Level of tolerance of HPPD proteins obtained from different organisms was determined according to the procedure as described in PCT/EP2010/070575.
(§3) Table E1: Determination of Percentage of Inhibition in Presence of 5.0×10^−6M of Compound “4-137” Compared to the Activity Measured in Absence of Compound No. “4-137” With HPPD Originated from Arabidopsis thaliana (AtHPPD), Mutated Pseudomonas fluorescens PfHPPD-G336W, Avena sativa (AvHPPD), FMP27 (Derived from Kordia algicida) and FMP37 (Derived from Blepharisma japonicum).

[3] = test system: Avena sativa HPPD (AvHPPD); experiment: as above; format: biochemical
Experimental: as §1, §2, §3

[4] = test system: mutated Pseudomonas fluorescens PfHPPD-G336W; experiment: as above; format: biochemical
Experimental: as §1, §2, §3

[5] = biological target: T1, Arabidopsis thaliana HPPD (AtHPPD) (Arabidopsis thaliana, UniProt P93836); experiment: as above; format: biochemical; details: 5.0×10^−6M of compound, compared to activity in absence of compound
T1 construct: His6 (N); made in house; host or cells: E. coli K-12 BL21
T1 sequence (P93836 1-445): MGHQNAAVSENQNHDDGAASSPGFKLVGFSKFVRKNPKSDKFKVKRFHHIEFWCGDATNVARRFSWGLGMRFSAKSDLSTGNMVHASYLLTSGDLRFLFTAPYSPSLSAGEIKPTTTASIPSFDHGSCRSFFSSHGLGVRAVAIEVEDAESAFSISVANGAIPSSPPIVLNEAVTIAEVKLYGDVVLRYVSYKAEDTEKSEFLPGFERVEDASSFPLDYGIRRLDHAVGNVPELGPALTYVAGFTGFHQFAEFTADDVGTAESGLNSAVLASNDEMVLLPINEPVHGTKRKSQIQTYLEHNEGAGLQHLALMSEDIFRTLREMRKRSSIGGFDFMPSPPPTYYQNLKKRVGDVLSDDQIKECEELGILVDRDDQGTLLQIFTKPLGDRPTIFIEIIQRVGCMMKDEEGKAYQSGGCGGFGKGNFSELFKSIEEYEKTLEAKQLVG
Experimental: as §1, §2, §3

[6] = test system: FMP27 (HPPD derived from Kordia algicida); experiment: as above; format: biochemical
Experimental: as §1, §2, §3

For `Cc1c(C(=O)Nc2nnnn2C)ccc(C(F)(F)F)c1S(C)(=O)=O` [Compound 4-137], the “tolerance of transgenic plants compared to the wild-type cotton plants” value [1] was “superior tolerance”, the Inhibition % ([2]; 5.0×10^−6M of compound, compared to activity in absence of compound, FMP37) was 82% and the “tolerance/sensitivity of the HPPD to the inhibitor compared to Arabidopsis thaliana HPPD” value ([2]; FMP37 versus AtHPPD, identical experimental conditions) was “less sensitive”. For the same molecule, the Inhibition % ([3]; 5.0×10^−6M of compound, compared to activity in absence of compound, AvHPPD) was 93%, the “tolerance/sensitivity of the HPPD to the inhibitor compared to Arabidopsis thaliana HPPD” value ([3]; AvHPPD versus AtHPPD, identical experimental conditions) was “less sensitive” and the Inhibition % ([4]; 5.0×10^−6M of compound, compared to activity in absence of compound, PfHPPD-G336W) was 92%. For the same molecule, the “tolerance/sensitivity of the HPPD to the inhibitor compared to Arabidopsis thaliana HPPD” value ([4]; PfHPPD-G336W versus AtHPPD, identical experimental conditions) was “less sensitive”, the Inhibition % [5] was 100% and the Inhibition % ([6]; 5.0×10^−6M of compound, compared to activity in absence of compound, FMP27) was 90%. The “tolerance/sensitivity of the HPPD to the inhibitor compared to Arabidopsis thaliana HPPD” value ([6]; FMP27 versus AtHPPD, identical experimental conditions) was “less sensitive”.

Reference: patent US9078446B2, “Use of N-(tetrazol-4-yl)- or N-(triazol-3-yl)arylcarboxamides or their salts for controlling unwanted plants in areas of transgenic crop plants being tolerant to HPPD inhibitor herbicides” (BAYER INTELLECTUAL PROPERTY GMBH, priority 2011, dated 2015)
